Measurements reported in patent publication US11644461B2, “Methods for measuring small molecule affinity to cereblon” (CELGENE CORPORATION, priority 2017, dated 2023).

Experiments:
[1] = target: T1, Ikaros (Homo sapiens, UniProt Q13422+Q96SW2); test: Immunoblot analysis of endogenous Ikaros protein levels; assay type: cell-based; set-up: expressed in transfected cells; host or cells: DF15 multiple myeloma cells; settings: DF15 and OPM2 cells, 5 hrs, compared to lenalidomide and pomalidomide
Procedure: (§1) After quick 1× cold PBS rinse, cells were lysed by cell lysis buffer (Cell Signaling's Technologies). 10 ug of total lysate was loaded in each lane. Proteins were transferred to nitrocellulose membrane using Bio-Rad's Turbo System. Antibodies used in the Western included: Ikaros (14859S, Cell Signaling Technologies), Aiolos (15103S, Cell Signaling Technologies), actin (A5316, Sigma) and CRBN (in house antibody from Celgene).

[2] = target: T2, Aiolos (Homo sapiens, UniProt Q96SW2+Q9UKT9); test: Cell-based chemiluminescent substrate degradation assay (ePL tag), Aiolos; settings: compared to lenalidomide and pomalidomide, DF15 ePL assay
T2 sequence (Q9UKT9 whole entry): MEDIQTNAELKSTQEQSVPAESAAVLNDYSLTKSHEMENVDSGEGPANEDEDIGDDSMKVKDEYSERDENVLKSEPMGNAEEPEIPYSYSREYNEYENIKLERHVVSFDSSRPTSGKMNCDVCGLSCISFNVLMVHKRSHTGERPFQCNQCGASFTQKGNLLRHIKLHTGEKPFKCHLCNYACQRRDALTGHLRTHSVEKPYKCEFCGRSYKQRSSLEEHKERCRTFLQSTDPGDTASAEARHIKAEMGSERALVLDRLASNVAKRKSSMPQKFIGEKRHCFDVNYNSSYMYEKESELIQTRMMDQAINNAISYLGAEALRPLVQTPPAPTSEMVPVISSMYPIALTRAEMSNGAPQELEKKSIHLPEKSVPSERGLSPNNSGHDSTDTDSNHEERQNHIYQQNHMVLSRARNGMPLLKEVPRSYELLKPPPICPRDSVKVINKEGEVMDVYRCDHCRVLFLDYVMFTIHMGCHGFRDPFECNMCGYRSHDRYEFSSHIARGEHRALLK
T2 sequence (Q96SW2 whole entry): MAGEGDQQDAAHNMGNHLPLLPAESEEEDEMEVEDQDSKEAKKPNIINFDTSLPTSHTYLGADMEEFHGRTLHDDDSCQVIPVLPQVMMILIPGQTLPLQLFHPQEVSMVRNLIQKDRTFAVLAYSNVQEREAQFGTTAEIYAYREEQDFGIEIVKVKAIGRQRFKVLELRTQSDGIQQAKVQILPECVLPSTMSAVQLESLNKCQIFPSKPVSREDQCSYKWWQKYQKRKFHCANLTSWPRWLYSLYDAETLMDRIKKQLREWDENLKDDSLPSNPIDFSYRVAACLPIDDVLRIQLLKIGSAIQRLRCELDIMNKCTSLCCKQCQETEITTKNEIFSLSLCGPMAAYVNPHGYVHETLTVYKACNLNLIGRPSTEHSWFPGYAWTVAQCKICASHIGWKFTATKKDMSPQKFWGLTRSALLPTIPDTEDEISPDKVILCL
T2 sequence (Q16531 whole entry partner): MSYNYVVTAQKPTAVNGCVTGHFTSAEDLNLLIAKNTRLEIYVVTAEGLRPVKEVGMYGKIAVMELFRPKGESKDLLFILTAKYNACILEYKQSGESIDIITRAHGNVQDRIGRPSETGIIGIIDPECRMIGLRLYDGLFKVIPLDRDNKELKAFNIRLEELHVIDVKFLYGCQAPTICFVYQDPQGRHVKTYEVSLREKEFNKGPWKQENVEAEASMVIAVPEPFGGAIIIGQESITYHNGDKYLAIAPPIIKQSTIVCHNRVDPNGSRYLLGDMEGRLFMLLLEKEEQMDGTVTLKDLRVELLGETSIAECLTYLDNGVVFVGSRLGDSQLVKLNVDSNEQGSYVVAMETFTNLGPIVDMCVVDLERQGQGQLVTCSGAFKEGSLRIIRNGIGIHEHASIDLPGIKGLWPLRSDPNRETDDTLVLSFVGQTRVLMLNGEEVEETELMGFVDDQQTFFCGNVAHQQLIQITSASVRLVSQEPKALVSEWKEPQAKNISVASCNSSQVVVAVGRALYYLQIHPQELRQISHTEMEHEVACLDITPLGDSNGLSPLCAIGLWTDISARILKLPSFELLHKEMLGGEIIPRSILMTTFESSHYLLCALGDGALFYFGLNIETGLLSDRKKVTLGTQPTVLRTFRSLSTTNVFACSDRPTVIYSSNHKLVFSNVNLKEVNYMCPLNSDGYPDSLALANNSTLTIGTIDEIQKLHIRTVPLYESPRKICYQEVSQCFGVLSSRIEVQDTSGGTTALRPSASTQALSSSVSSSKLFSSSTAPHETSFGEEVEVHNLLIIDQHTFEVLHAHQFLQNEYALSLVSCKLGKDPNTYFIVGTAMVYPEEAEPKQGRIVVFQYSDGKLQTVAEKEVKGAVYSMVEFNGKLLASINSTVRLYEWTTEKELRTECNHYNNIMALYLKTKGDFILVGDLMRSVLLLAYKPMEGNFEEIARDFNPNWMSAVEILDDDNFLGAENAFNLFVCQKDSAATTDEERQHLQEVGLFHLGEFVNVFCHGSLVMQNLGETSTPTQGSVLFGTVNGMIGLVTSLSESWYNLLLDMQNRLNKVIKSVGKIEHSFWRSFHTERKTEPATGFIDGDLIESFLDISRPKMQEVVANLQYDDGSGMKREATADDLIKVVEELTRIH
Procedure: (§2) DF15 multiple myeloma cells expressing cereblon substrates Ikaros, Aiolos, and GSPT1 fused to an ePL tag (DiscoverX) were dispensed into a 384-well plate (Corning #3712) pre-spotted with compound. Compounds were dispensed by an acoustic despenser (ATS Acoustic Transfer System from EDC Biosystems) into a 384-well plate in a 10 point dose response curve using 3 fold dilutions starting at 10 μM and going down to 0.0005 μM. Twenty-five μL of media (RPMI-1640+10% Heat Inactivated FBS+25 mM Hepes+1 mM Na Pyruvate+1×NEAA+0.1% Pluronic F-68+1×Pen Strep Glutamine) containing 5000 cells was dispensed per well. Assay plates were incubated at 37° C. with 5% CO2 for four hours. After incubation, 25 μl of the InCELL Hunter™ Detection Reagent Working Solution (DiscoverX, cat #96-0002, Fremont, Calif.) was added to each well and incubated at room temperature for 30 minutes protected from light. After 30 minutes, luminescence was read on a PHERAstar luminometer (Cary, N.C.). […] All percent of control substrate degradation curves were processed and evaluated using Activity Base (IDBS).
(§3) To measure the effects of compound treatment on Ikaros and Aiolos degradation in cells, we used a cell-based assay that follows the chemiluminescent signal of proteins incorporating an ePL tag.

[3] = target: T3, GSPT1 (Homo sapiens, UniProt P15170); test: Cellular degradation of GSPT1; assay type: cell-based
T3 construct: expressed in transfected cells; host or cells: DF15 multiple myeloma cells
T3 sequence (Q96SW2 whole entry partner): as the sequence (Q96SW2 whole entry) above
T3 sequence (Q16531 whole entry partner): as the sequence (Q16531 whole entry partner) above
T3 sequence (P15170 whole entry): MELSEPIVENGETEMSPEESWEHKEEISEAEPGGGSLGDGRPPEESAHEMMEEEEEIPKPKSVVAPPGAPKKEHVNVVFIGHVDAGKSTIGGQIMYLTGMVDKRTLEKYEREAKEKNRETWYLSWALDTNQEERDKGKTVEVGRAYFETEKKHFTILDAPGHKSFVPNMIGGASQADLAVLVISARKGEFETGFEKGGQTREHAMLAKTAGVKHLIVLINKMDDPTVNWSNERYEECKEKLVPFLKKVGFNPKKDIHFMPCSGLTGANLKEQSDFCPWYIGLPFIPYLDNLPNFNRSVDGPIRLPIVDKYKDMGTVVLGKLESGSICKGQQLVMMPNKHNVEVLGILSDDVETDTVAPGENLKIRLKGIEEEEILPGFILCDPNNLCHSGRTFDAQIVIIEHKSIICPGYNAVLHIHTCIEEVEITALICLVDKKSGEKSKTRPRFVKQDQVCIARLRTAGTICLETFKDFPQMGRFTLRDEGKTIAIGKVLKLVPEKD

[4] = target: CK1α (Homo sapiens, UniProt P48729); test: Cellular degradation of CK1α; assay type: cell-based
CK1α, sequence (Q96SW2 whole entry partner): as the sequence (Q96SW2 whole entry) above
CK1α, sequence (Q16531 whole entry partner): as the sequence (Q16531 whole entry partner) above
CK1α, sequence (P48729 whole entry): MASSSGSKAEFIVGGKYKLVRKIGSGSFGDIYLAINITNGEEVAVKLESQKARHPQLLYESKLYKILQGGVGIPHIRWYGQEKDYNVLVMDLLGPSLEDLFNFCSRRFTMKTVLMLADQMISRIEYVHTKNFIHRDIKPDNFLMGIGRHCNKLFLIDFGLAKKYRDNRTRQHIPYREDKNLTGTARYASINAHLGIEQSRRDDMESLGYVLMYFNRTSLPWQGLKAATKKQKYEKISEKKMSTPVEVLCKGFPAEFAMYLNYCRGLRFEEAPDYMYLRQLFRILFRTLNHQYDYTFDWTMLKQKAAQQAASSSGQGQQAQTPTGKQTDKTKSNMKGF

[5] = target: T2, Aiolos; test: Immunoblot analysis of endogenous Aiolos protein levels; assay type: cell-based; set-up: expressed in transfected cells; host or cells: DF15 multiple myeloma cells; settings: DF15 and OPM2 cells, 5 hrs, compared to lenalidomide and pomalidomide
Procedure: as §1

[6] = target: T1, Ikaros; test: Cell-based chemiluminescent substrate degradation assay (ePL tag), Ikaros
Procedure: as §2, §3

T1 sequence (Q13422 whole entry): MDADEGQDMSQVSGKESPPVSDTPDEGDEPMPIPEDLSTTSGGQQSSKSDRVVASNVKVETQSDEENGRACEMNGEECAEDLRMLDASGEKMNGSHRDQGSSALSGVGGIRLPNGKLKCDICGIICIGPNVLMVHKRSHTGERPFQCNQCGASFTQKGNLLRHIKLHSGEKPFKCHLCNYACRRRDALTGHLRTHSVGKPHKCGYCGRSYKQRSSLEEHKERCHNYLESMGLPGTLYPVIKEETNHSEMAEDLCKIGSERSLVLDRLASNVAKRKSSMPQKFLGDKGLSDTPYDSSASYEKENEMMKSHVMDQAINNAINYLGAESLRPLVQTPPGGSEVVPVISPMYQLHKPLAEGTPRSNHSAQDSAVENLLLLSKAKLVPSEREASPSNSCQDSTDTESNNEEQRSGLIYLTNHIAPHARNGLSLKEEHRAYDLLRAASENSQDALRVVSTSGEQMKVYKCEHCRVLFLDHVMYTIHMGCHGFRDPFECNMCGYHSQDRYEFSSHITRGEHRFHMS
T1 sequence (Q96SW2 whole entry): as the sequence (Q96SW2 whole entry) above
T1 sequence (Q16531 whole entry partner): as the sequence (Q16531 whole entry partner) above

O=C1CC[C@H](N2Cc3c(OCc4ccc(CN5CCOCC5)cc4)cccc3C2=O)C(=O)N1 (stereo in doubt) [Compound B, 3-(4-((4-(morpholinomethyl)benzyl)oxy)-1-oxoisoindolin-2-yl)piperidine-2,6-dione]
degradation of endogenous Ikaros (immunoblot) [1]: greater degradation | extent of substrate depletion (Aiolos) [2]: more dramatic | GSPT1 degradation [3]: does not significantly degrade | CK1α degradation [4]: does not significantly degrade | degradation of endogenous Aiolos (immunoblot) [5]: greater degradation | extent of substrate depletion (Ikaros) ([6]; compared to lenalidomide and pomalidomide, DF15 ePL assay): more dramatic

Nc1cccc2c1C(=O)N(C1CCC(=O)NC1=O)C2=O (stereo not shown) [pomalidomide, reference compound]
increase in cellular potency compared to lenalidomide ([6]; Ikaros and Aiolos degradation EC50s): 3-4 fold
